Assays:
[1] = system: HepG2 tumor-bearing xenograft mice; test: In vivo antitumor study; design: species or system BALB/c nude mice; settings: 5 mg/kg i.v., days 1, 4, 7, 10
Experimental: HepG2 cell-bearing xenograft mice models were developed by subcutaneously injecting 1 × 10^7 cells/100 μl into the rear flanks of 5-week-old male BALB/c nude mice (Orient Ltd. Osan, South Korea). After two weeks of initial implantation, animals were randomly divided into six groups (n = 6 per group). Respective formulations were injected at a dose of 100 μg/100 μL in 750 μg carrier by tail vein four times every 3 days. Tumors were measured twice weekly using a digital caliper and the tumor volume (V) was calculated as, V = ((width)^2 x length)/2. The animals were sacrificed after four weeks of treatment and the primary tumor was excised, weighed, and subjected to further analysis.

[2] = system: HepG2 xenograft tumor masses; test: Histomorphometric and immunohistochemical analysis of tumor masses; format: in vivo, BALB/c nude mice; settings: for Tumor cell volumes: H&E, six histological fields; for Immunolabeled cell percentages: CD31 (PECAM-1) / Immunolabeled cell percentages: Caspase-3 / Immunolabeled cell percentages: Ki-67 / Immunolabeled cell percentages: PARP: tumor mass; for Caspase-3-immunolabeled cells: tumor of treated mice
Experimental: Xenografted tumor masses were cut and fixed in 10% neutral buffered formalin, embedded in paraffin, serially sectioned (3–4 μm), and stained with H&E prior to histopathological examinations under a light microscope (Nikon, Tokyo, Japan). The tumor cell volumes and intact tumor cell-occupied regions (%/mm^2 of tumor mass) were calculated using a computer-based automated image analyzer (iSolution FL ver 9.1, IMT i-solution Inc., Quebec, Canada).
The apoptotic markers, caspase-3, PARP, CD31, and Ki67 were investigated immunohistochemically using purified primary antibodies and biotinylated secondary antibodies, with avidin-biotin-peroxidase complex (ABC) and a peroxidase substrate kit (Vector Labs, Burlingame, CA, USA). Briefly, endogenous peroxidase activity was blocked with methanol and 0.3% H2O2 for 30 min, and non-specific immunoglobulin binding was blocked with normal horse serum blocking solution in 10 mM citrate buffer (pH 6.0). Tissue sections were incubated with primary antisera overnight at 4°C in a humidity chamber, and then incubated with biotinylated universal secondary antibodies and ABC reagents for 1 h at room temperature. Finally, sections were reacted with the peroxidase substrate kit for 3 min at room temperature. Cells were counted as immunopositive if they had > 20% immunoreactivity to the apoptotic marker (caspase-3 or PARP). The percentage region occupied by caspase-3- and PARP-positive cells within the tumor mass (%/mm^2 of tumor mass) was measured by an automated image analyzer.

[3] = system: red blood cells (RBC); test: Hemolytic analysis; settings: male, Sprague-Dawley, rat
Experimental: The experimental protocol was approved by
the Institutional Animal Ethical Committee, Yeungnam
Briefly, the rat femoral artery
was cannulated and whole blood samples were withdrawn.
centrifugation at 3500 rpm for 10 min. The degree of
Hemolytic analysis hemolysis was determined by measuring the absorbance
of the supernatant at 540 nm.
Hemolytic toxicity was determined in a male
Sprague-Dawley rat after treatment with different

CC(=O)O[C@H]1C(=O)[C@@]2(C)[C@H]([C@H](OC(=O)c3ccccc3)[C@]3(O)C[C@H](OC(=O)[C@H](O)[C@@H](NC(=O)c4ccccc4)c4ccccc4)C(C)=C1C3(C)C)[C@]1(OC(C)=O)CO[C@@H]1C[C@@H]2O [PTX, Paclitaxel]
Tumor growth (in words) [1]: slightly inhibited tumor growth
Tumor cell volumes [2]: 53.84 ± 3.18 %/mm2 of tumor mass
Immunolabeled cell percentages: CD31 (PECAM-1) [2]: 30.54 ± 4.09 %/mm2 of tumor mass
Immunolabeled cell percentages: Caspase-3 [2]: 30.34 ± 5.00 %/mm2 of tumor mass
Immunolabeled cell percentages: Ki-67 [2]: 44.90 ± 5.31 %/mm2 of tumor mass
Immunolabeled cell percentages: PARP [2]: 29.59 ± 3.04 %/mm2 of tumor mass
Caspase-3-immunolabeled cells [2]: 30.34%
hemolysis at 30 min, 100 µg/mL [3]: ~25%

O=C(CCCCCCC(=O)Nc1ccccc1)NO [VOR, Vorinostat]
Tumor growth (in words) [1]: slightly inhibited tumor growth
Tumor cell volumes [2]: 60.51 ± 10.92 %/mm2 of tumor mass
Immunolabeled cell percentages: CD31 (PECAM-1) [2]: 29.70 ± 2.52 %/mm2 of tumor mass
Immunolabeled cell percentages: Caspase-3 [2]: 26.31 ± 7.48 %/mm2 of tumor mass
Immunolabeled cell percentages: Ki-67 [2]: 42.64 ± 4.65 %/mm2 of tumor mass
Immunolabeled cell percentages: PARP [2]: 27.64 ± 3.22 %/mm2 of tumor mass
Caspase-3-immunolabeled cells [2]: 26.31%
hemolysis at 30 min, 100 µg/mL ([3]; isolated red blood cells (RBC) suspension): ~40%
